Results on two molecules are retold here after publication PMC12381718 (2025).

The test system of experiment [1] is ds26 (DNA, duplex) CAATCGGATCGAATTCGATCCGATTG
As to the kind of experiment: CD titration. To be noted: K+ (100 mM potassium phosphate); 100 mM KPhos pH 7.4, 20 °C; 5 µM DNA; weak Ka seen by UV-visible.

The test system is the same in experiment [2]. As to the kind of experiment: UV-visible titration. To be noted: K+ (100 mM potassium phosphate), 100 mM KPhos pH 7.4, ambient temperature, 10 µM ligand, apparent.

Turning to `C[n+]1ccc(-c2ccc3c(c2)CCc2cc(-c4cc[n+](C)cc4)ccc2/N=N/3)cc1`, the binding entry in experiment [1] is given as “no”. For the same molecule, the Ka in experiment [2] (continuous 405 nm irradiation) is 2.44 × 10^3 M^–1.

Turning to `C[n+]1ccc(-c2ccc3c(c2)CCc2cc(-c4cc[n+](C)cc4)ccc2/N=N\3)cc1`, the Ka in experiment [2] is given as 2.53 × 10^3 M^–1.
